Results from ChEMBL document CHEMBL3244266, “Potential antiarthritic agents. 2. Benzoylacetonitriles and beta-aminocinnamonitriles” (J Med Chem, 1979).
Activity calls are given as the source filed them. The calls are words filed in the database; no cut-off is given here.

Tests used:
Rattus norvegicus [1] = species on record: Rattus norvegicus; experiment: Antiinflammatory activity against adjuvant-induced arthritis in rat assessed as inhibition of swelling; format: functional, organism-based
Rattus norvegicus [2] = experiment: Antiinflammatory activity against adjuvant-induced arthritis rat model assessed as inhibition of swelling at 25 mg/kg, po measured on day 14 (reference value: 0%); format: functional; details: 336 h
Rattus norvegicus [3] = experiment: Antiinflammatory activity against adjuvant-induced arthritis rat model assessed as inhibition of swelling at 100 mg/kg, po measured on day 14 (reference value: 0%); format: functional; details: 336 h
Rattus norvegicus [4] = experiment: Antiinflammatory activity against carrageenin-induced edema in rat; format: functional, organism-based
Cavia porcellus [5] = species on record: Cavia porcellus; experiment: Antiinflammatory activity against UV-induced erythema in guinea pig; format: functional, organism-based
Rattus norvegicus [6] = experiment: Antiinflammatory activity against adjuvant-induced arthritis rat model assessed as inhibition of swelling at 50 mg/kg, po measured on day 21 (reference value: 0%); format: functional; details: 504 h
Rattus norvegicus [7] = experiment: Ulcerogenicity in rat at 800 mg/kg administered daily; format: toxicity, organism-based; set-up: dose 800 mg/kg; details: in vivo
Rattus norvegicus [8] = experiment: Antiinflammatory activity against adjuvant-induced arthritis rat model assessed as inhibition of swelling at 25 mg/kg, po measured on day 21 (reference value: 0%); format: functional; details: 504 h
Rattus norvegicus [9] = experiment: Antiinflammatory activity against adjuvant-induced arthritis rat model assessed as inhibition of swelling at 50 mg/kg, po measured on day 14 (reference value: 0%); format: functional; details: 336 h
Rattus norvegicus [10] = experiment: Antiinflammatory activity against adjuvant-induced arthritis rat model assessed as inhibition of swelling at 100 mg/kg, po measured on day 21 (reference value: 0%); format: functional; details: 504 h
Rattus norvegicus [11] = experiment: Antiinflammatory activity against adjuvant-induced arthritis rat model assessed as inhibition of swelling at 2 mg/kg, po measured on day 21 (reference value: 0%); format: functional; details: 504 h
Rattus norvegicus [12] = experiment: Antiinflammatory activity against adjuvant-induced arthritis rat model assessed as inhibition of swelling at 1 mg/kg, po measured on day 14 (reference value: 0%); format: functional; details: 336 h
Rattus norvegicus [13] = experiment: Antiinflammatory activity against adjuvant-induced arthritis rat model assessed as inhibition of swelling at 1 mg/kg, po measured on day 21 (reference value: 0%); format: functional; details: 504 h
Rattus norvegicus [14] = experiment: Antiinflammatory activity against adjuvant-induced arthritis rat model assessed as inhibition of swelling at 0.5 mg/kg, po measured on day 21 (reference value: 0%); format: functional; details: 504 h
Rattus norvegicus [15] = experiment: Antiinflammatory activity against adjuvant-induced arthritis rat model assessed as inhibition of swelling at 2 mg/kg, po measured on day 14 (reference value: 0%); format: functional; details: 336 h
Rattus norvegicus [16] = experiment: Antiinflammatory activity against adjuvant-induced arthritis rat model assessed as inhibition of swelling at 0.5 mg/kg, po measured on day 14 (reference value: 0%); format: functional; details: 336 h
[17] = Drug recovery in rat urine assessed as total radioactivity at 50 mg/kg, po measured after 24 hrs by TLC/HPLC analysis; format: ADME, organism-based; set-up: dose 50 mg/kg, route oral; details: in vivo
Plasma = experiment: Drug recovery in rat plasma assessed as total radioactivity at 50 mg/kg, po measured over 7-day period by TLC/HPLC analysis; format: ADME, organism-based; set-up: dose 50 mg/kg, route oral; details: in vivo
Cavia porcellus [18] = species on record: Cavia porcellus; experiment: Inhibition of prostaglandin synthetase in guinea pig lung assessed as net production of prostaglandin-like activity; details: tested as the 14C-labelled form
Rattus norvegicus [19] = experiment: Antiinflammatory activity against adjuvant-induced arthritis rat model assessed as inhibition of swelling at 200 mg/kg, po measured on day 14 (reference value: 0%); format: functional; details: 336 h
Rattus norvegicus [20] = experiment: Antiinflammatory activity against adjuvant-induced arthritis rat model assessed as inhibition of swelling at 200 mg/kg, po measured on day 21 (reference value: 0%); format: functional; details: 504 h
[21] = tested as the 14C-labelled form

Row | Structure (SMILES) | inhibition in vivo at 25 mg/kg (Rattus norvegicus [2]) [%] | inhibition in vivo at 100 mg/kg (Rattus norvegicus [3]) [%] | Activity (Rattus norvegicus [4]) | Activity (Cavia porcellus [5]) | inhibition in vivo at 50 mg/kg (Rattus norvegicus [6]) [%] | Activity (Rattus norvegicus [7]) | inhibition in vivo at 25 mg/kg (Rattus norvegicus [8]) [%] | inhibition in vivo at 50 mg/kg (Rattus norvegicus [9]) [%] | inhibition in vivo at 100 mg/kg (Rattus norvegicus [10]) [%] | other results
1 | N#CCC(=O)c1cccc(F)c1 |  |  |  |  |  |  |  |  |  | Activity (Rattus norvegicus [1]): Active
2 | N#C/C=C(\N)c1ccsc1 | 37 | 58 | inactive | inactive | 27 | Non-toxic | 20 | 48 | 33 | 
3 | O=C(O)CC(=O)c1ccccc1 |  |  |  |  |  |  |  |  |  | Activity (Rattus norvegicus [4]; [21]): inactive; Activity (Rattus norvegicus [1]; [21]): inactive
4 | O=C(O)C(O)C(O)c1ccccc1 (centres undefined) |  |  |  |  |  |  |  |  |  | Activity (Rattus norvegicus [4]; [21]): inactive; Activity (Rattus norvegicus [1]; [21]): inactive
5 | O=C(O)CNC(=O)c1ccccc1 |  |  |  |  |  |  |  |  |  | Activity (Rattus norvegicus [4]; [21]): inactive; Activity (Rattus norvegicus [1]; [21]): inactive
6 | COc1ccc2c(c1)c(CC(=O)O)c(C)n2C(=O)c1ccc(Cl)cc1 [INDOMETHACIN] |  |  |  |  |  |  |  |  |  | inhibition in vivo at 2 mg/kg (Rattus norvegicus [11]): 24%; inhibition in vivo at 1 mg/kg (Rattus norvegicus [12]): 46%; inhibition in vivo at 1 mg/kg (Rattus norvegicus [13]): 19%; inhibition in vivo at 0.5 mg/kg (Rattus norvegicus [14]): 20%; inhibition in vivo at 2 mg/kg (Rattus norvegicus [15]): 68%; inhibition in vivo at 0.5 mg/kg (Rattus norvegicus [16]): 40%
7 | N#CC[14C](=O)c1ccccc1 |  |  |  |  |  |  |  |  |  | Drug recovery [17]: 81.7%; Drug recovery (Plasma): 93.3%
8 | N#CCC(=O)c1ccc(F)cc1 | 33 | 46 | inactive | inactive | 37 | Non-toxic | 17 | 56 | 32 | 
9 | N#CCC(=O)c1ccccc1 | 54 | 63 | inactive | inactive | 42 | Non-toxic | 33 | 51 | 48 | inhibition (Cavia porcellus [18]): Active
10 | N#CCC(=O)c1ccccc1F | 54 | 63 | inactive | inactive | 42 | Non-toxic | 33 | 51 | 48 | 
11 | N#C/C=C(\N)c1cccs1 | 35 | 49 | inactive | inactive | 23 | Non-toxic | 10 | 44 | 27 | 
12 | N#C/C=C(\N)c1ccccc1 | 39 | 65 | Active | Active | 52 |  | 25 | 58 | 54 | 
13 | N#CCC(=O)c1ccsc1 | 52 | 46 | inactive | inactive | 40 | Non-toxic | 31 | 55 | 29 | 
14 | N#C/C=C(\N)c1ccc(F)cc1 | 26 | 53 | inactive | inactive | 25 | Non-toxic | 14 | 43 | 29 | 
15 | N#CCC(O)c1ccccc1 (centres undefined) |  |  |  |  |  |  |  |  |  | Activity (Rattus norvegicus [4]; [21]): inactive; Activity (Rattus norvegicus [1]; [21]): inactive
16 | N#C/C=C(\N)c1cccc(F)c1 |  |  |  |  |  |  |  |  |  | Activity (Rattus norvegicus [1]): Active
17 | N#CCC(=O)c1cccs1 |  | 58 | inactive | inactive | 18 | Non-toxic |  | 46 | 42 | inhibition in vivo at 200 mg/kg (Rattus norvegicus [19]): 72%; inhibition in vivo at 200 mg/kg (Rattus norvegicus [20]): 29%
